“And” between values parts separate entries of the source, which are not always exact repeats. Equal values may be shown once.
What was measured:
[1] = Body weight in allergic IC mice; assay type: in vivo, mouse; details: 75 ug/kg oral vs control animals; daily timepoints
Procedure: (§1) An ethanol stock solution of Compound B (1 mg/ml) was dissolved in Miglyol vehicle at the appropriate concentration. Control animals received the vehicle containing the same amount of ethanol. Drug (or vehicle) treatment was carried out by daily gavage after weighing the animal. Drug solution was prepared calculating a final volume of 100 ul/10 grams body weight, and treatment was started on the day of the first intravesical ovalbumin challenge, maintained daily, but discontinued over the weekends, for 12 days total treatment. FIG. 7 illustrates the timeline of the experiment.

[2] = Calcemia assessment in CYP rats (colorimetric serum calcium assay); assay type: in vivo, rat; details: both dosage levels (30 and 75 ug/kg); limit of normal range 10.7 mg/dl in rats
Procedure: Serum calcemia was evaluated by a commercially available calorimetric assay (Calcium Dry-Fast, Sentinel CH. Italy). Briefly, 10 ul serum were added to 100 ul reaction solution prepared according to the manufacturer's procedure in a 96-wells plate. After 5 min incubation at RT samples were read at 570 nm with a spectrophotometer and the calcium levels were calculated in triplicate by using a standard reference as directed.

ovalbumin specific IgE = assay: Ova-specific IgE ELISA, allergic IC in mice; assay type: in vivo, mouse; details: 75 ug/kg oral vs vehicle; ovalbumin-sensitized BALB/c mice
Procedure: (§2) Mice (BALB/c, females 8 weeks old, weight 18-20 g, Charles River, Calco ITA) were sensitized by injecting 10 ug/mouse of chicken ovalbumin from Sigma (OVA, grade V) in the presence of 4 mg of alum (SERVA, Germany) by intraperitoneal injection, once a week for 4 weeks. This induces a sustained level of IgE detectable in serum.
(§3) One or two weeks after the last immunization boost, sensitized mice were anesthetized (1.5% Isoflurane) and then trans-urethrally catheterized (24 gauge, ¾ in.; Angiocath, Becton-Dickson). Slight digital pressure was applied the lower abdomen to drain the urine.
(§4) The urinary bladders were instilled with either 150 ul of either saline or OVA alone, (1 mg/150 ul) infused at a slow rate to avoid trauma and vesico-ureteral reflux and repeated twice within a 30-min interval with the syringe kept in place on the catheter for at least 30 min. Intravesical challenge was repeated 7-10 days after the first one with the same procedure.
Treatment Group: 10 mice were treated with oral vitamin D3 analogue (1-alpha-fluoro-25-hydroxy-16,23Ediene-26,27-bishomo-20-epi-cholecalciferol) Compound “B” for 14 days (daily dose of either 30 or 75 ug/kg). […]
Ova-specific IgE were measured according to the following procedure. […] Finally, 450 nm absorbance was recorded after the reaction was stopped.

IL-13 = assay: Taq-Man analysis of bladder mRNA, allergic IC in mice: IL-13; assay type: in vivo, mouse; details: ovalbumin challenged
Procedure: as §2, §3, §4, §1
Total RNA was extracted from one half of bladder by using RNeasy Mini kit (Qiagen), treated with DNase 1 (Qiagen) and reverse transcription performed with Reverse Transcription Reagent (Applied Biosystems) with Random Hexamers (according to the manufacturer's instructions). cDNA was synthesized from 1 ug of RNA. Real-Time PCR was performed in 96-well optical reaction plates (Applied Biosystems). For each sample we amplified both the target gene and the housekeeping gene (HPRT) in different wells (singleplex) and in duplicate. The amplification Master Mix was prepared according to the following protocol (volumes refer to a single well with a final volume of 40 ul/well)): 2× TaqMan® R Universal PCR Master Mix (Applied Biosystems, 4304437): 20 ul; 20× Assay target gene: 2 ul; H2O: 8 ul; cDNA: 10 ul. Reaction was run on an SDS 7000 (Applied Biosystems) instruments, with the following amplification program: 2′ at 50° C.; 10′ at 95° C.; 15″ at 95° C. and 1′ at 60° C. for 40 cycles; Cycle threshold (Ct) values were exported into Excel Worksheets for analysis and relative quantitations were performed using the ΔCt method. All primers used carried the FAM reporter.
Experiments in Example 7 were performed according to the general procedures described previously in Example 6. Mice were challenged with saline (untreated) or ovalbumin (treatment with vehicle or one of Compounds C-I at a dosage indicated in Table 6 in ug/kg).

[3] = test system: rat bladders (CYP-induced cystitis); assay: Histological analysis of rat bladders from the CYP cystitis experiment; assay type: in vivo
Procedure: Rat bladders from the experiments of Example 1 were fixed in formalin, embedded in paraffin and stained with hematoxylin and eosin by methods known in the art.
Histopathological examination was performed on at least 10 sections per bladder. Different inflammatory parameters were considered:
infiltration of inflammatory cells (mostly lymphocytes and monocytes)
and were scored as follows: 0=normal without any sign of inflammation, 1=mild, 2=moderate, 3=severe, 4=severe signs diffused across all of the section.
Table 3 refers to vehicle treated animals and Table 4 to “Compound A” treated animals. Each inflammatory parameter was scored from 0 to 4, where 0 is normal and 4 the most severe symptom.

[4] = individual rats, score 0 (normal) to 4 (most severe), Compound A 0.1 μg/kg oral 14 days
[5] = mean of 4 Compound A treated rats, score 0-4

Compound	body weight [1]	average serum calcium levels [2]	ovalbumin specific IgE in serum (ovalbumin specific IgE)	expression of inflammatory marker IL-13 (IL-13; 75 ug/kg oral, individual animals)	expression of inflammatory marker IL-13 (IL-13; 30 and 75 ug/kg oral, dose dependent, pooled samples)	EPITHELIAL EROSION histological score [3, 4]	FIBROSIS histological score [3, 4]	HEMOSTASIS histological score [3, 4]	INFILTRATION histological score [3, 4]	EDEMA histological score ([3]; individual rats, score 0 normal, 1 mild, 2 moderate, 3 severe, 4 severe diffused, Compound A 0.1 μg/kg oral 14 days)	EDEMA histological score, MEAN [3, 5]	EPITHELIAL EROSION histological score, MEAN [3, 5]	FIBROSIS histological score, MEAN [3, 5]	HEMOSTASIS histological score, MEAN [3, 5]	INFILTRATION histological score, MEAN [3, 5]
C=C1/C(=C\C=C2/CCC[C@]3(C)C([C@@H](C)C/C=C/C(O)(CC)CC)=CC[C@@H]23)C[C@@H](O)C[C@@H]1F [Compound B, 1-alpha-fluoro-25-hydroxy-16,23E-diene-26,27-bishomo-20-epi-cholecalciferol]	no significant difference	only slightly but not significantly elevated	no significant changes	down-modulates	significantly reduces	–	–	–	–	–	–	–	–	–	–
CC(=O)OC1C/C(=C/C=C2\CCC[C@]3(C)C(C(C)C/C=C\C(O)(C(F)(F)F)C(F)(F)F)=CCC23)C[C@@H](OC(C)=O)C1 (stereo partly drawn) [Compound A, 1,3-Di-O-acetyl-1,25-dihydroxy-16,23Z-diene-26,27-hexafluoro-19-nor-cholecalciferol]	–	–	–	–	–	0	0	0 and 1 and 0.5 (2×)	0.5 (2×) and 1 and 2	0.5 and 0 (2×) and 2	0.63	0	0	0.5	1
